Compound	melting point [°C]
CN(CC(=O)O)C(=O)c1ccsc1	56 to 57
O=C(O)C1CC2CCCC(C1)C2=O (configuration not stated)	129 to 131
O=[N+]([O-])c1cc(Cl)ccc1NC1CC1	70 to 72
CN(C)c1ncnc2nc[nH]c12	256 to 258
NC(=O)CCOc1cccc(F)c1	94 to 96
Cc1cccc(S(N)(=O)=O)n1	165 to 167
Cc1nc(S)c(C(N)=O)c(C)c1C	294 to 296
COCC1(O)CCNCC1	54 to 56
O=C(O)CNS(=O)(=O)c1c(F)cc(F)cc1Br	136 to 138
O=C(O)COc1ccc(Br)cc1F	106 to 108
O=Cc1nccn1CC(F)(F)F	50 to 52
O=[N+]([O-])c1cc(F)cc(S(=O)(=O)Cl)c1	40 to 42
ClCc1nn(-c2ccccc2)c2c1CCC2	83 to 85
CCC(C(=O)Nc1cccc(C(N)=S)c1)c1ccccc1 (configuration not stated)	148 to 150
CC(SCc1ncc(-c2ccc(Cl)cc2)o1)C(=O)O (configuration not stated)	129 to 131
Oc1ccccc1-c1ccn[nH]1	95 to 97
CCOc1ccccc1OCC(=O)O	44 to 46
CN1C(=O)C(C(N)=NO)=C(N)C12CCCC2	210 to 212
CCOC(=O)C(C#N)C1C(=O)N(C)c2ccccc21 (configuration not stated)	119 to 121
CS(=O)(=O)Nc1cc(F)ccc1N	121 to 123
O=c1ccccn1CCOc1ccc(Br)cc1	111 to 113
COc1cc(C=O)ccc1OCc1ccc(Cl)cc1Cl	114 to 116
O=C(O)c1ccccc1N1CCCCC1	59 to 61
CC(C(=O)O)c1cccc(F)c1 (configuration not stated)	59 to 61
CC(C)(C)OC(=O)NC(CCC(=O)O)c1ccccc1 (configuration not stated)	151 to 153

Compound	melting point [°C]
O=C(CCl)NCc1ccco1	81 to 83
COc1cc(C)nc(Cl)n1	35 to 37
O=C(O)CCN1C(=O)CCc2ccccc21	157 to 159
O=C(Cc1nc2ccccc2[nH]1)C(F)(F)F	249 to 251
COc1ccc(-c2noc(CCl)n2)cc1OC	101 to 103
NC1(CO)CCc2ccccc21 (configuration not stated)	100 to 102
O=c1cc(CCl)nc2ccc(Br)cn12	172 to 174
COc1ccc(-c2csc3nc(C)[nH]c(=O)c23)cc1OC	249 to 251
CN(CC(=O)N1CCCC(C(=O)O)C1)c1ccc(Cl)cn1 (configuration not stated)	184 to 186
COC(=O)C=CN(C)C	43 to 45
CC1CCN(CC(=O)O)CC1	147 to 149
Nc1ccc(C(=O)NCCO)cc1	115 to 117
NNC(=O)NCCc1cccs1	90 to 92
Cc1ccc(N(C)S(=O)(=O)c2cccc(C(=O)O)c2)cc1	162 to 164
CC(C)(C)c1ccc(C(C)(C)N)cc1	75 to 77
NCCc1c[nH]c2cc(F)ccc12	74 to 76
O=C(O)c1ccc2c(=O)n3c(nc2c1)CCC3	354 to 356
Cc1cccc2c(Cl)ncnc12	131 to 133
CCOC(=O)NCCC(=O)O	47 to 49
CC(C)c1cc(N)n(C(C)C)n1	52 to 54
CCN(CC)S(=O)(=O)c1ccc(OC(C)C)c(NC(=O)CCl)c1	223 to 226
CC(C)c1nn(-c2ccccc2)cc1C(=O)O	169 to 171
NCC(=O)N1CCN(c2ccccc2)CC1	69 to 71
CSc1ccc2c(c1)CCCC2=O	74 to 76
CCOc1cc(CC#N)cc(Cl)c1OC(F)F	79 to 81

Compound	melting point [°C]
O=C(O)c1ccccc1NS(=O)(=O)C(F)(F)F	164 to 166
Cc1ccc(-c2cnc(CCC(=O)O)o2)cc1C	159 to 161
O=Cc1ccc(-c2nc3ccccc3s2)o1	177 to 179
CC(C)Oc1ncccc1O	57 to 59
COc1ccccc1Nc1nc2sc(C(=O)O)cc2s1	235 to 237
Cc1nc(-c2ccccc2)sc1N	117 to 119
O=C(O)C1=NC=CN2CCS(=O)(=O)N=C12	183 to 187
Cn1cc[nH]c(=O)c1=O	207 to 209
COC(=O)c1ccc(N)cc1Cl	107 to 109
Sc1nnc(-c2cccnc2)n1Cc1ccccc1	179 to 181
CC(C)Oc1ccc(S(=O)(=O)Cl)c2ccccc12	93 to 95
NS(=O)(=O)Cc1ccc(Cl)nc1	142 to 144
O=C(O)C(=O)Cc1ccc(Cl)cc1	192 to 194
N#CC(C(=O)CCl)=C1Nc2ccccc2N1	285 to 287
Nc1c(-c2ccco2)nc2ccccn12	165 to 167
O=C1NC(=O)C(c2ccccc2OC(F)(F)F)N1 (configuration not stated)	156 to 158
O=C1CCn2cccc21	54 to 56
CN1CCN(C(=O)C2CCc3ccccc3N2)CC1 (configuration not stated)	113 to 115
N#CSc1ccc(N)cc1	43 to 56
Cc1c[nH]c(=O)n1-c1cccc([N+](=O)[O-])c1	201 to 203
O=C(O)CC1(C(=O)O)CCN(C(=O)OCc2ccccc2)C1 (configuration not stated)	169 to 171
COc1ccc(-c2ccc(C#N)cc2)cc1	102 to 104
Cc1cccn2cc(COc3ccccc3C(=O)O)nc12	199 to 201
NC1CCN(C2CCOCC2)C1=O (configuration not stated)	50 to 52
O=C(O)C(=O)Cc1ccc2ccccc2c1	188 to 190

Compound	melting point [°C]
ClCc1cc2c(cc1Br)OCCO2	117 to 119
CC1=NN(c2ccc(Br)cc2)C(=O)C1	164 to 166
Nc1cc(-c2ccccc2)nc(N)n1	153 to 155
CC(Oc1ccc(C(=O)O)cn1)c1ccccc1 (configuration not stated)	113 to 115
CSc1nc(Cl)cc(CCl)n1	28 to 32
CS(=O)(=O)CCC(=O)O	100 to 102
O=C1CNc2ccc(Br)cc2N1	169 to 171
NCc1ncc(-c2ccccc2)[nH]1	142 to 144
O=S1(=O)CC(O)C(NCCO)C1 (configuration not stated)	115 to 117
Cc1ccc(C(=O)O)cc1S(=O)(=O)Nc1cc(Cl)ccc1F	181 to 183
Cc1oc(C)c(C(=O)O)c1Br	189 to 191
Cc1nnc(C(Cl)(Cl)Cl)o1	47 to 49
Sc1ccc2ccccc2n1	173 to 176
O=C(O)C1CSC(c2cccc(Br)c2)N1 (configuration not stated)	165 to 167
O=C1COc2ccc(C(=O)CCl)cc2N1	228 to 230
O=[N+]([O-])c1ncn(CCO)n1	76 to 78
CC(=O)c1ccc2c(c1)CC(=O)N2	217 to 219
N#CCCN1CCS1(=O)=O	52 to 54
COC(=O)CSc1cncc(Cl)n1	32 to 34
CCCCCS(N)(=O)=O	62 to 64
O=C(Nc1ccc(O)cc1)c1ccc(Cl)cc1	246 to 248
CN(C)S(=O)(=O)c1ccccc1C(N)=S	154 to 156
Cc1nn(C)c(Cl)c1CO	92 to 94
CCCC(C)C(N)C(=O)O (configuration not stated)	259 to 261
CC(C)(C)OC(=O)NC1CC2CCCC(C1)C2N (configuration not stated)	110 to 112

Compound	melting point [°C]
O=C(Nc1ccccc1)c1ccc(Cl)nn1	213 to 215
CCOc1ccc(S(N)(=O)=O)cn1	133 to 135
CC(C)CC(=O)Cc1ccc(Cl)cc1Cl	28 to 30
COc1cc(N)c(C(=O)O)c(Br)c1	134 to 136
NC1=C(c2nc3ccccc3[nH]2)C(=O)CN1NC(=O)c1cccs1	270 to 272
CC(C)[C@H](C(=O)O)N(C)C	154 to 156
CS(=O)(=O)c1ccc(-c2csc(N)n2)cc1	260 to 262
CC(NS(=O)(=O)c1ccc(Cl)cc1)C(=O)O (configuration not stated)	136 to 138
N#Cc1cc(F)ccc1S(=O)(=O)Cl	64 to 66
NC(=S)Cn1nc2ccccn2c1=O	204 to 206
CC(C)(C)C(=O)Nc1cn[nH]c1	200 to 202
NCC(O)c1cc(Cl)c2c(c1)OCCO2 (configuration not stated)	131 to 133
CC(C)(C)OC(=O)NCC1CCCC1N (configuration not stated)	43 to 45
Nc1cc(F)c(Br)cc1N	104 to 106
O=S(=O)(Cl)c1cc(Cl)c(Br)s1	61 to 63
Nc1ccc(S)c(Br)c1	94 to 96
O=C(O)c1ccc(Cl)cc1N1CCCC1=O	218 to 220
CCc1ccc(-c2ccc(C(=O)O)o2)cc1	170 to 172
COC(=O)c1ccc(N)c(F)c1	111 to 113
CN(C(=O)C1CC1)c1ccccc1C(=O)O	166 to 168
O=S(=O)(NC1CCCC1)c1ccc(Cl)nc1	97 to 99
O=C(O)Cn1ncc2ccc([N+](=O)[O-])cc21	219 to 221
NC(=NO)c1ccc(O)cc1	152 to 156
NC(=O)c1ccc(S(N)(=O)=O)c(N)c1	202 to 204
CC(Cl)C(=O)N(C)C1CCS(=O)(=O)C1 (configuration not stated)	106 to 108

Compound	melting point [°C]
COc1ccc(Oc2ccc(N)cn2)cc1	95 to 97
Clc1cc(Cl)c2c(n1)NCC2	149 to 151
Cc1sc2nc(-c3ccc(OC(F)F)cc3)nc(Cl)c2c1C	140 to 142
c1cn2c(n1)CN(C1CCNCC1)CC2	63 to 65
CS(=O)(=O)c1cc(Br)ccc1N	129 to 131
Cc1ccc(Cc2cnc(N)s2)cc1	142 to 144
Nc1ccnn1Cc1ccsc1	33 to 35
COC(=O)CNc1ncccc1[N+](=O)[O-]	104 to 106
Cc1cccc(Nc2nnc(S)s2)c1C	195 to 197
O=C(Nc1ccc(Cl)cn1)OCC(F)(F)F	158 to 160
O=C(O)COc1ccc(-c2ccccc2)cc1	195 to 197
Cc1ccc(C)c(S(=O)(=O)Nc2cccc(C(=O)O)c2)c1	217 to 219
CCS(=O)(=O)Nc1ccc(N)cc1OC	129 to 131
CNC(c1cccnc1)c1ccc(Cl)cc1Cl (configuration not stated)	111 to 113
CC(=O)c1ccc(N(C)C)cc1O	120 to 122
Clc1cccc(Nc2nc3ccccc3s2)c1	173 to 175
CNc1nc(S)nc2ccccc12	220 to 222
CC(=O)NCc1ccc(C(=O)C(C)Cl)s1 (configuration not stated)	79 to 81
CCCc1c(C(=O)O)cnn1C1CCCC1	113 to 115
Cc1nc(S)c2c(C)c(C)sc2n1	193 to 195
Cc1[nH]n(C)c(=N)c1C	109 to 111
Nc1cc(S(N)(=O)=O)ccc1F	134 to 136
